From the OligoGym collection
After the bases stand the sugars from the 5' end (letter, count) and the backbone: PS all phosphorothioate, else s phosphorothioate and o phosphodiester by linkage. Methylation of C is not given here. e = 2'-O-(2-methoxyethyl) (MOE); k = constrained ethyl (cEt); d = 2'-deoxy (DNA); m = 2'-O-methyl

Target: HSD17B13
Settings: ASO, HepaRG

Sequence	target mRNA inhibition (1 µM)	further results
TATACTTTTCCGTCTC (sugars k3 d10 k3, PS)	71%	target mRNA inhibition (0.02 µM): 0%; target mRNA inhibition (0.078 µM): 22%; target mRNA inhibition (0.313 µM): 44%; target mRNA inhibition (1.25 µM): 79%; target mRNA inhibition (5 µM): 83%
TCTCTTAGCTGTGCAC (sugars k3 d9 k3 e1, PS)	69%	
CAGAACCAATATGCTC (sugars k3 d10 k3, PS)	56%	
TTTAATACGACTTCCT (sugars k3 d10 k3, PS)	72%	target mRNA inhibition (0.02 µM): 0%; target mRNA inhibition (0.078 µM): 0%; target mRNA inhibition (0.313 µM): 27%; target mRNA inhibition (1.25 µM): 68%; target mRNA inhibition (5 µM): 83%
GTCTACCTCTAAGTTA (sugars k3 d10 k3, PS)	3%	
CAGAGACATGAGGTTT (sugars k3 d1 m1 d8 k3, PS)	61%	
CAACACTAATCTCAGT (sugars k3 d10 k3, PS)	4%	
GATAAAATAGGGTGCA (sugars k3 d10 k3, PS)	52%	
CTAACTAACCTGACAC (sugars k3 d10 k3, PS)	23%	
ATACTAATGTCCAAGG (sugars k3 d10 k3, PS)	89%	target mRNA inhibition (0.02 µM): 12%; target mRNA inhibition (0.078 µM): 43%; target mRNA inhibition (0.313 µM): 94%; target mRNA inhibition (1.25 µM): 84%
TGCTATAGTAATCACA (sugars k3 d10 k3, PS)	65%	
ATGTAATAGGCAGTAA (sugars k3 d10 k3, PS)	33%	
TTTAGAGAGCGATAGA (sugars k3 d10 k3, PS)	13%	
CAAGACTTAAACACCA (sugars k3 d10 k3, PS)	55%	
GACTTCAGAGTTATAC (sugars k3 d10 k3, PS)	16%	
CATAGACATGTGTTCA (sugars k3 d10 k3, PS)	52%	
TATTTAGCATTGCCTG (sugars k3 d10 k3, PS)	12%	
GCCTUGAATAGCAAGC (sugars k3 d1 m1 d8 k3, PS)	12%	
GTAAUCACAAGTAAGG (sugars k3 d1 m1 d8 k3, PS)	20%	
ATGCTACTTGAACAGT (sugars k3 d10 k3, PS)	47%	
TTATAACTGAGCTAGA (sugars k3 d10 k3, PS)	8%	
CTTCATCCTTGGTGCT (sugars k3 d10 k3, PS)	30%	
GTGCATCTTAAGATAC (sugars k3 d10 k3, PS)	47%	
GTTGATATTCTGTGGC (sugars kkdddddddddkekek, PS)	69%	

Sequence	target mRNA inhibition (1 µM)	further results
ATCAAGACATTCTAGC (sugars k3 d10 k3, PS)	61%	
CAGGAAGACAGGTAAT (sugars k3 d10 k3, PS)	60%	
AGAGTTGCACCGTTTT (sugars k3 d10 k3, PS)	76%	target mRNA inhibition (0.02 µM): 5%; target mRNA inhibition (0.078 µM): 11%; target mRNA inhibition (0.313 µM): 40%; target mRNA inhibition (1.25 µM): 81%; target mRNA inhibition (5 µM): 87%
TCTACAAAACTGGTAT (sugars k3 d10 k3, PS)	9%	
CTCCAAATTCCCAACC (sugars k3 d10 k3, PS)	31%	
GTGGCATGGCTACAGA (sugars k3 d10 k3, PS)	56%	
TTATGTACCAAACTTG (sugars k3 d10 k3, PS)	53%	
ATTAATGCCACCCTAC (sugars k3 d10 k3, PS)	6%	
ACCTCTAAGTTAGCCC (sugars k3 d10 k3, PS)	28%	
GAGGAGTTAGGGAGCC (sugars k3 d10 k3, PS)	36%	
ATGCAAAAGCATTCTA (sugars k3 d10 k3, PS)	50%	
TGCAATAGTACTATAG (sugars k3 d10 k3, PS)	24%	
TTCACCACGATTGTTA (sugars k3 d10 k3, PS)	40%	
TTCCAAATCAGGTAGT (sugars k3 d10 k3, PS)	12%	
CTTCACCTGATTTAGA (sugars k3 d10 k3, PS)	7%	
GATAAGAAGAGAGCTC (sugars k3 d10 k3, PS)	36%	
TAGTCTTGATGTAGTG (sugars k3 d9 k3 e1, PS)	61%	
CCAACCAAACTTCCAG (sugars kkdddddddddkekek, PS)	15%	
CCAGATTGCACAAACC (sugars k3 d10 k3, PS)	72%	target mRNA inhibition (0.02 µM): 0%; target mRNA inhibition (0.078 µM): 17%; target mRNA inhibition (0.313 µM): 51%; target mRNA inhibition (1.25 µM): 78%; target mRNA inhibition (5 µM): 92%
TGTGTTCTTGTTGATA (sugars k3 d9 k3 e1, PS)	65%	
CACCATGAAGGACTCC (sugars k3 d10 k3, PS)	48%	
GCAAATGTAAGAAGCC (sugars k3 d10 k3, PS)	4%	
TAACGGTGATCAAATG (sugars k3 d10 k3, PS)	17%	
CCCATAACCATAGGAC (sugars k3 d10 k3, PS)	47%	

Sequence	target mRNA inhibition (1 µM)	further results
TTGGTTGGAGGCTGTA (sugars k3 d10 k3, PS)	60%	
GACAATACAGGATAGA (sugars k3 d10 k3, PS)	43%	
TCCCAACCAAACTTCC (sugars kkdddddddddkekek, PS)	27%	
CCTAAATTCAAAGACC (sugars k3 d10 k3, PS)	64%	
GGTGGTAACGGTGATC (sugars kkdddddddddkekek, PS)	39%	
TTTACTGGGATACTAT (sugars k3 d10 k3, PS)	25%	
AGTCCATGCAAAAGCA (sugars k3 d9 k3 e1, PS)	80%	target mRNA inhibition (0.02 µM): 1%; target mRNA inhibition (0.078 µM): 15%; target mRNA inhibition (0.313 µM): 43%; target mRNA inhibition (1.25 µM): 74%; target mRNA inhibition (5 µM): 85%
TTGGAATGCTACTTGA (sugars kkdddddddddkekek, PS)	54%	
TCTCTTGACAATGGTT (sugars k3 d9 k3 e1, PS)	84%	target mRNA inhibition (0.02 µM): 0%; target mRNA inhibition (0.078 µM): 23%; target mRNA inhibition (0.313 µM): 47%; target mRNA inhibition (1.25 µM): 66%; target mRNA inhibition (5 µM): 79%
GAATCATTCAGTAGCT (sugars k3 d10 k3, PS)	65%	
ATGTTTTGATCCAGGG (sugars k3 d10 k3, PS)	46%	
GTCTCCAATACAGGCC (sugars k3 d10 k3, PS)	47%	
GATACAAATTTATTGG (sugars k3 d10 k3, PS)	33%	
ATATTGAGGCACTGGA (sugars k3 d10 k3, PS)	53%	
ACGAAGCCTGAATGCC (sugars k3 d10 k3, PS)	52%	
TAATAGCCAGTACAGT (sugars k3 d9 k3 e1, PS)	64%	
TGCAGCATTGATTCGA (sugars kkdddddddddkekek, PS)	42%	
ATTGTATGAGGTCTCT (sugars k3 d10 k3, PS)	49%	
ATAGCAAGCCAACAGA (sugars k3 d1 m1 d8 k3, PS)	1%	
AGAAATTCACCTTGAC (sugars k3 d1 m1 d8 k3, PS)	9%	
GCTGTAAGAGTCAGTA (sugars kkdddddddddkekek, PS)	42%	
ATTACAGCCTTAGAGT (sugars k3 d10 k3, PS)	56%	
TTATGAAGTTAGTATA (sugars k3 d10 k3, PS)	31%	
TCTGTATAGCTGCATT (sugars k3 d10 k3, PS)	47%	

Sequence	target mRNA inhibition (1 µM)	further results
GTTTTTATTGGGCCCA (sugars k3 d10 k3, PS)	67%	
ATGTCAGACCTCTGTG (sugars k3 d10 k3, PS)	19%	
GTACACGAAGCCTGAA (sugars k3 d10 k3, PS)	42%	
TGACTAAGGAGCTAGA (sugars k3 d10 k3, PS)	31%	
AAAGTTAATAGGACTA (sugars k3 d10 k3, PS)	12%	
CTATCAGACTTCTTAC (sugars k3 d10 k3, PS)	39%	
CCTCATTTAGCAGCTT (sugars k3 d10 k3, PS)	81%	target mRNA inhibition (0.02 µM): 14%; target mRNA inhibition (0.078 µM): 34%; target mRNA inhibition (0.313 µM): 54%; target mRNA inhibition (1.25 µM): 78%; target mRNA inhibition (5 µM): 88%
GCCAATTCACATATGT (sugars k3 d10 k3, PS)	34%	
CTTGATGATTCTGACT (sugars k3 d10 k3, PS)	57%	
GTCCACCTTTAAATGG (sugars k3 d10 k3, PS)	33%	
CATCATCGATGGAAGA (sugars k3 d10 k3, PS)	14%	
TAGGCTAAAATGGTCA (sugars k3 d10 k3, PS)	59%	
TAAGTAGATGGTAAGT (sugars k3 d10 k3, PS)	74%	target mRNA inhibition (0.02 µM): 5%; target mRNA inhibition (0.078 µM): 10%; target mRNA inhibition (0.313 µM): 34%; target mRNA inhibition (1.25 µM): 72%; target mRNA inhibition (5 µM): 85%
TTAGAATACGCTGAGA (sugars k3 d10 k3, PS)	48%	
CAGCTATAGGTAGCTA (sugars k3 d10 k3, PS)	0%	
GCTCTATTGGGCCAGG (sugars k3 d10 k3, PS)	47%	
CATCTCTGGGACCAAG (sugars k3 d9 k3 e1, PS)	42%	
GCTAGTAATTGCATCT (sugars k3 d10 k3, PS)	47%	
ACGACTCCAAGTAGGA (sugars k3 d10 k3, PS)	24%	
ATTCTATAGCTAAGTA (sugars k3 d10 k3, PS)	23%	
ACAAGTAAGGTAAAGT (sugars k3 d10 k3, PS)	38%	
CCATCTATCAGACTTC (sugars k3 d9 k3 e1, PS)	60%	
TTACAGCATCAAGACA (sugars k3 d9 k3 e1, PS)	44%	
